Laboratory results reported in publication PMC8621172, “Manipulating Estrogenic/Anti-Estrogenic Activity of Triphenylethylenes towards Development of Novel Anti-Neoplastic SERMs” (International Journal of Molecular Sciences, 2021).
“Also recorded” adds a separate entry of the source.

Columns and labels:
ovariectomized rats = test: Uterotrophic assay in ovariectomized rats; type: in vivo, rat; conditions: for uterotrophic effect (in words): compared to TAM; for Relative uterus wet weight: s.c. 10 mg/kg/d BW for three days
Excerpt: Compounds showing appreciable estrogenic activity in the YES assay and that were able to inhibit the growth of MCF-7 cancer cell lines yet with low estrogenic activity on Ishikawa endometrial adenocarcinoma cells might serve as potential ideal SERMS. Compounds 12 and 19 were therefore selected for the in vivo experiments to assess their estrogenic properties in an uterotrophic assay in an ovariectomized rat model. The in vivo uterotrophic rat assay is the gold standard assay to test for the estrogenic effect of compounds; the assay uses adult ovariectomized (OVX) female rats where there is no significant source of endogenous estrogens. Compounds that have estrogenic effects cause uterotrophic response due to the imbibition of water and growth of the uterine cells. Statistically significant uterine weight increases compared to controls provide a positive result. Adopting both in vivo and in vitro assays was inevitable due to the limitations of each assay. The cell lines are not properly able to recapitulate the in vivo environment of the uterus within the body. On the other hand, the rat uterotrophic assay merely considers the uterine weight gain as an endpoint of estrogenicity without taking into account all factors that play a role in exerting an estrogenic effect on the organ and body.
The most common short-term in vivo assay for estrogenicity/anti-estrogenicity is the uterotrophic assay, suitable for screening ERα agonists and antagonists. The primary endpoint is the uterine wet weight (UWW). An increase in UWW indicates an estrogenic activity of the test compound. Compounds 12 and 19 were screened using the in vivo uterotrophic assay.
The most common short-term in vivo assay for (anti)-estrogenicity is the uterine growth test, suitable for screening ERα agonists and antagonists. The primary endpoint is the uterine wet weight (UWW). An increase in UWW indicates an estrogenic activity of the test compound [43]. Sprague Dawley female rats (170–200 g) were obtained from the animal colony of the National Institute of Research (Cairo, Egypt). The rats were housed in a temperature-controlled room (23–24 °C) with a 12 h light:dark cycle and with free access to food and water. They were allowed to acclimatize to the animal house of the German University in Cairo for at least 1 week before initiating the experiments. All efforts were made to minimize animal discomfort and suffering. Animals were ovariectomized. After 14 days of endogenous hormonal decline, the animals were subcutaneously treated for three days with respective compounds. The animals were randomly allocated to treatment and vehicle groups (n = 6). […] The uterus wet weight was determined.

prostate cell lines = test: NCI five-dose assay, prostate subpanel; type: cell-based; conditions: Homo sapiens
Method: (§1) All compounds were subjected to the NCI in vitro disease-oriented human cells screening panel assay. The human tumor cell lines of the cancer-screening panel are grown in RPMI 1640 medium containing 5% fetal bovine serum and 2 mM L-glutamine. For a typical screening experiment, cells are inoculated into 96-well microtiter plates in 100 μL at plating densities ranging from 5000 to 40,000 cells/well depending on the doubling time of individual cell lines. After cell inoculation, the microtiter plates are incubated at 37 °C, 5% CO2, 95% air, and 100% relative humidity for 24 h prior to the addition of experimental drugs. After 24 h, two plates of each cell line are fixed in situ with TCA to represent a measurement of the cell population for each cell line at the time of drug addition. Experimental drugs are solubilized in dimethyl sulfoxide at 400-fold the desired final maximum test concentration and stored frozen prior to use. At the time of drug addition, an aliquot of frozen concentrate is thawed and diluted to twice the desired final maximum test concentration with complete medium containing 50 μg/mL gentamicin. […] Bound stain is subsequently solubilized with a 10 mM trizma base, and the absorbance is read on an automated plate reader at a wavelength of 515 nm. […] Three response parameters (GI50, TGI, and LC50) were calculated for each cell line.

NSCLC cell lines = test: NCI five-dose assay, NSCLC subpanel; type: cell-based; conditions: Homo sapiens
Method: as §1

renal cell lines = test: NCI five-dose assay, renal subpanel; type: cell-based; conditions: Homo sapiens
Method: as §1

MDA-MB-468 = test: NCI five-dose assay, TNBC cell line MDA-MB-468; type: cell-based, human; conditions: MDA-MB-468, five-dose assay
Method: as §1

**Q.** Which “uterotrophic effect (in words)” value (ovariectomized rats) does the source give for `COc1ccc(C(C)=C(c2ccc(Cl)cc2)c2ccc(OCCN3CCCCC3)cc2)cc1` [Compound 12, E/Z-1-(2-{4-[1-(4-Chloro-phenyl)-2-(4-methoxy-phenyl)-propenyl]-phenoxy}-ethyl)-piperidine] here?
**A.** no uterotrophic effect; also recorded: less increase in UWW

**Q.** And the “Relative uterus wet weight” value (ovariectomized rats)?
**A.** 1.23 ± 0.18 g/kg BW

**Q.** How did the “uterotrophic effect (in words)” value (ovariectomized rats) turn out when `COc1ccc(C(C)=C(c2ccc(Cl)cc2)c2ccc(OCCN3CCCCCC3)cc2)cc1F` [Compound 19, E/Z-1-(2-{4-[1-(4-Chlorophenyl)-2-(3-fluoro-4-methoxyphenyl)-propenyl]-phenoxy}-ethyl)-azepane] was run?
**A.** less increase in UWW

**Q.** And the “Relative uterus wet weight” value (ovariectomized rats)?
**A.** 1.15 ± 0.18 g/kg BW

**Q.** What does the source list for `CCN(CC)CCOc1ccc(C(=C(C)c2ccc(F)c(OC)c2)c2ccc(Cl)cc2)cc1` [Compound 28, E/Z-(2-{4-[1-(4-Chlorophenyl)-2-(4-fluoro-3-methoxyphenyl)-propenyl]-phenoxy}-ethyl)-diethyl-amine]?
**A.** GI50 (prostate cell lines): 2310 nM; GI50 (NSCLC cell lines): 2340 nM; GI50 (renal cell lines): 2400 nM; anti-proliferative activity compared to TAM (MDA-MB-468): equipotent to TAM
